According to US20240174680A1, “CDK2 INHIBITORS AND METHODS OF USING THE SAME” (Cedilla Therapeutics, Inc., priority 2021, published 2024):

Target: CDK2/Cyclin E1 (Homo sapiens, UniProt P24941)
Experiment: CDK2/Cyclin E1 Caliper LabChip EZ Reader mobility shift assay
Type: biochemical
Design: purchased Eurofins 14-475
Details: read-out: Caliper Assay (CDK2/CCNE1): IC50
Outline: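 Mobility-shift kinase assay: compound titrations preincubated 30 min with enzyme and ATP, reaction started with 5-FAM-QSPKKG-CONH2 peptide. Final 2.5 nM CDK2/Cyclin E1, 100 μM ATP, 1.5 μM peptide, HEPES pH 7.5; stopped with EDTA after 100 min. IC50 from four-parameter fit of normalized conversion ratio.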

Compound | IC50 [nM]
CNC(=O)[C@@H](NC(=O)[C@@H]1CN(C(=O)c2cnn(Cc3ccccc3)c2)CC12CN(C(=O)[C@H]1CC1(C)C)C2)[C@@H](C)OCC(C)(C)C [I-130A] | 10 to 100
CNC(=O)[C@@H](NC(=O)[C@H]1CN(C(=O)c2cnn(Cc3ccccc3)c2)CC12CN(C(=O)C1(C3CC3)CC1)C2)[C@@H](C)OCc1ccccc1 [I-114B] | > 10000
CC1(C)C[C@@H]1C(=O)N1CC2(CN(C(=O)c3cnn(Cc4ccccc4)c3)C[C@H]2C(=O)NCc2nnc[nH]2)C1 [I-191A] | > 10000
CNC(=O)[C@@H](NC(=O)[C@@H]1CN(Cc2cnc[nH]2)CC12CN(C(=O)[C@H]1CC1(C)C)C2)[C@@H](C)OCc1ccccc1 [I-77A, (S)-6-((1H-imidazol-5-yl)methyl)-N-((2S,3R)-3-(benzyloxy)-1-(methylamino)-1-oxobutan-2-yl)-2-((S)-2,2-dimethylcyclopropane-1-carbonyl)-2,6-diazaspiro[3.4]octane-8-carboxamide] | > 10000
CNC(=O)[C@@H](NC(=O)[C@@H]1CN(C(=O)c2cnn(Cc3ccccc3)c2)CC12CN(C(=O)C1(C(F)(F)F)CC1)C2)[C@@H](C)OCc1ccccc1 [I-108A] | 100 to 1000
Cc1noc([C@H](C)NC(=O)[C@@H]2CN(C(=O)c3cnn(Cc4ccccc4)c3)CC23CN(C(=O)[C@H]2CC2(C)C)C3)n1 [I-158A] | > 10000
CNC(=O)[C@H](COCc1ccccc1)NC(=O)[C@H]1CN(C(=O)c2cnn(Cc3ccccc3)c2)CC12CN(C(=O)C(C)(C)C)C2 [I-100B] | > 10000
CC1(C)C[C@@H]1C(=O)N1CC2(CN(C(=O)c3cnn(Cc4ccccc4)c3)C[C@H]2C(=O)Nc2ccc(Cc3ccccc3)cc2)C1 [I-84A] | 1000 to 10000
CNC(=O)[C@@H](NC(=O)[C@@H]1CN(C(=O)c2cnn(Cc3ccccc3)c2)CC12CN(C(=O)[C@H]1CC1(C)C)C2)[C@@H](C)OCC1CCOCC1 [I-119A] | 100 to 1000
CNC(=O)[C@@H](NC(=O)[C@H]1CN(C(=O)c2cnn(Cc3ccccc3)c2)CC12CN(C(=O)C(C)(C)C)C2)[C@@H](C)OCc1ccccc1 [I-65B] | > 10000
CNC(=O)[C@@H](NC(=O)[C@H]1CN(C(=O)c2cnn(CC3CCNCC3)c2)CC12CN(C(=O)[C@H]1CC1(C)C)C2)[C@@H](C)OCc1ccccc1 [I-19B] | > 10000
CNC(=O)[C@@H](NC(=O)[C@H]1CN(C(=O)c2cnn(CC3CCN(C)CC3)c2)CC12CN(C(=O)[C@H]1CC1(C)C)C2)[C@@H](C)OCc1ccccc1 [I-23B] | > 10000
CNC(=O)[C@@H](NC(=O)[C@H]1CN(C(=O)C2CCNC2)CC12CN(C(=O)[C@H]1CC1(C)C)C2)[C@@H](C)OCc1ccccc1 (stereo partly shown) [I-70B] | > 10000
CNC(=O)[C@@H](NC(=O)[C@H]1CN(C(=O)c2cnn(CC3CCN(C(C)=O)CC3)c2)CC12CN(C(=O)[C@H]1CC1(C)C)C2)[C@@H](C)OCc1ccccc1 [I-17B] | > 10000
CCC(CC)C(=O)N1CC2(CN(C(=O)c3cnn(Cc4ccccc4)c3)C[C@@H]2C(=O)N[C@H](C(=O)NC)[C@@H](C)OCc2ccccc2)C1 [I-74B] | > 10000
CNC(=O)[C@@H](NC(=O)[C@H]1CN(C(=O)c2cnn(CC3CCOCC3)c2)CC12CN(C(=O)[C@H]1CC1(C)C)C2)[C@@H](C)OCc1ccccc1 [I-95B] | > 10000
CNC(=O)[C@@H](NC(=O)[C@H]1CN(C(=O)c2cnc(C(C)(C)C)s2)CC12CN(C(=O)[C@H]1CC1(C)C)C2)[C@@H](C)OCC1CCCCC1 [I-229B] | > 10000
CNC(=O)[C@@H](NC(=O)[C@H]1CN(C(=O)Nc2cnn(Cc3ccccc3)c2)CC12CN(C(=O)[C@H]1CC1(C)C)C2)[C@@H](C)OCc1ccccc1 [I-48B] | > 10000
CNC(=O)[C@@H](NC(=O)[C@@H]1CN(C(=O)C2CCOCC2)CC12CN(C(=O)[C@H]1CC1(C)C)C2)[C@@H](C)OCc1ccccc1 [I-38A] | > 10000

The remaining lines, values ahead:

IC50 [nM] | Compound
100 to 1000 | CC1(C)C[C@@H]1C(=O)N1CC2(CN(C(=O)c3cnn(Cc4ccccc4)c3)C[C@H]2C(=O)N2CCN(CC3CCCCC3)CC2)C1 [I-237]
1000 to 10000 | COC[C@H]1CCCN(C(=O)[C@@H](NC(=O)[C@@H]2CN(C(=O)c3cnn(Cc4ccccc4)c3)CC23CN(C(=O)[C@H]2CC2(C)C)C3)[C@@H](C)OC)C1 [I-283]
10 to 100 | COC[C@H]1CCCN(C(=O)[C@@H](NC(=O)[C@@H]2CN(C(=O)c3cncs3)CC23CN(C(=O)[C@H]2CC2(C)C)C3)[C@@H](C)OC[C@H]2CC[C@H](OC)CC2)C1 [I-402]
1000 to 10000 | CC1(C)C[C@@H]1C(=O)N1CC2(CN(C(=O)c3cnn(Cc4ccccc4)c3)C[C@H]2C(=O)NCc2nc3ccccc3o2)C1 [I-230]
1000 to 10000 | CN(C(=O)[C@@H]1CCCN(C(=O)[C@@H]2CN(C(=O)c3cnn(Cc4ccccc4)c3)CC23CN(C(=O)[C@H]2CC2(C)C)C3)C1)C1CCCCC1 [I-181]
100 to 1000 | CNC(=O)[C@@H](NC(=O)[C@@H]1CN(C(=O)c2cncs2)CC12CN(C(=O)[C@H]1CC1(C)C)C2)[C@@H](C)OCC1CC2CCC1O2 (stereo partly shown) [I-462]
10 to 100 | CNC(=O)[C@@H](NC(=O)[C@@H]1CN(C(=O)c2cnn(Cc3ccccc3)c2)CC12CN(C(=O)[C@H]1CC1(C)C)C2)[C@@H](C)OCC12CC(C(=O)OC)(C1)C2 [I-299]
≤ 10 | CNC(=O)[C@@H](NC(=O)[C@@H]1CN(C(=O)c2cnn(Cc3ccccc3)c2)CC12CN(C(=O)[C@H]1CC1(C)C)C2)[C@@H](C)OCC1CCC(F)(F)CC1 [I-202]
> 10000 | CNC(=O)[C@@H](NC(=O)[C@@H]1CN(C(=O)c2cncs2)CC12CN(CC(C)(C)C)C2)[C@@H](C)OCC12CCC(CC1)OC2 [I-347]
10 to 100 | C[C@@H](OCC1CCCCC1)[C@H](NC(=O)[C@@H]1CN(C(=O)c2cncs2)CC12CN(C(=O)[C@H]1CC1(F)F)C2)C(=O)N1CCCCC1 [I-296]
100 to 1000 | CNC(=O)[C@@H](NC(=O)[C@@H]1CN(C(=O)c2cnn(Cc3ccccc3)c2)CC12CN(C(=O)[C@H]1CC1(C)C)C2)[C@@H](C)OC[C@H]1CC[C@H](O)CC1 [I-413]
≤ 10 | C[C@@H](OCC12CCC(CC1)OC2)[C@H](NC(=O)[C@@H]1CN(C(=O)c2cncs2)CC12CN(C(=O)[C@H]1CC1(C)C)C2)C(=O)N1CCC[C@H](COC(F)F)C1 [I-461]
> 10000 | COc1ccc(CNC(=O)[C@@H]2CN(C(=O)c3cnn(Cc4ccccc4)c3)CC23CN(C(=O)[C@H]2CC2(C)C)C3)nn1 [I-371]
≤ 10 | C[C@@H](OCC1CCCCC1)[C@H](NC(=O)[C@@H]1CN(C(=O)c2cnn(Cc3ccccc3)c2)CC12CN(C(=O)[C@H]1CC1(C)C)C2)C(=O)NCC1(C(=O)O)CC1 [I-474]
10 to 100 | CC1(C)C[C@@H]1C(=O)N1CC2(CN(C(=O)c3cncs3)C[C@H]2C(=O)NC(c2cccc(C3CCCCC3)n2)C2COCCO2)C1 (stereo partly shown) [I-496]
≤ 10 | C[C@@H](OCC12CCC(CC1)OC2)[C@H](NC(=O)[C@@H]1CN(C(=O)c2cncs2)CC12CN(C(=O)[C@H]1CC1(C)C)C2)C(=O)N1CCC(C)(C)CC1 [I-452]
≤ 10 | CNC(=O)[C@@H](NC(=O)[C@@H]1CN(C(=O)c2cncs2)CC12CN(C(=O)[C@H]1CC1(C)C)C2)[C@@H](C)OCC1CCCC2(CC2)C1 (stereo partly shown) [I-370]
10 to 100 | C[C@@H](OCC1CCOCC1)[C@H](NC(=O)[C@@H]1CN(C(=O)c2cncs2)CC12CN(C(=O)[C@H]1CC1(C)C)C2)C(=O)N1CCC(n2ccnc2)CC1 [I-440]
100 to 1000 | COC[C@H]1CCCN(C(=O)[C@@H](NC(=O)[C@@H]2CN(C(=O)c3cncs3)CC23CN(C(=O)C(C)(C)C2CC2)C3)[C@@H](C)OC[C@H]2CC[C@H](O)CC2)C1 [I-431]
≤ 10 | CNC(=O)[C@@H](NC(=O)[C@@H]1CN(C(=O)c2cnn(Cc3ccccc3)c2)CC12CN(C(=O)[C@H]1CC1(C)C)C2)C1(OCC2CCCCC2)CC1 [I-396]
≤ 10 | C[C@@H](OCC1CCCCC1)[C@H](NC(=O)[C@@H]1CN(C(=O)c2cnn(Cc3ccccc3)c2)CC12CN(C(=O)[C@H]1CC1(C)C)C2)C(=O)N1CCC(c2cc[nH]n2)CC1 [I-443]
10 to 100 | C[C@@H](OCC1CCCCC1)[C@@H](COC(F)(F)F)NC(=O)[C@@H]1CN(C(=O)c2cnn(Cc3ccccc3)c2)CC12CN(C(=O)[C@H]1CC1(C)C)C2 [I-309]
10 to 100 | C[C@@H](OCC1CCOCC1)[C@@H](COC1CCC(F)(F)CC1)NC(=O)[C@@H]1CN(C(=O)c2cncs2)CC12CN(C(=O)C(C)(C)C1CC1)C2 [I-333, (S)-2-(2-cyclopropyl-2-methylpropanoyl)-N-((2R,3R)-1-((4,4-difluorocyclohexyl)oxy)-3-((tetrahydro-2H-pyran-4-yl)methoxy)butan-2-yl)-6-(thiazole-5-carbonyl)-2,6-diazaspiro[3.4]octane-8-carboxamide]
> 10000 | CNC(=O)C(NC(=O)[C@@H]1CN(C(=O)c2cn[nH]c2)CC12CN(C(=O)[C@H]1CC1(C)C)C2)C(O)Cc1ccccc1 (stereo partly shown) [I-298]
100 to 1000 | C[C@@H](OCC1CCOCC1)[C@@H](COC(F)(F)F)NC(=O)[C@@H]1CN(C(=O)c2cncs2)CC12CN(C(=O)[C@H]1CC1(C)C)C2 [I-428]
10 to 100 | C[C@@H](OCC1CCOCC1)[C@H](NC(=O)[C@@H]1CN(C(=O)c2cncs2)CC12CN(C(=O)[C@H]1CC1(C)C)C2)C(=O)N1CCC[C@H](COC(F)(F)F)C1 [I-327]
10 to 100 | CNC(=O)C(NC(=O)[C@@H]1CN(C(=O)c2cncs2)CC12CN(C(=O)[C@H]1CC1(C)C)C2)c1cccc(C2CCCCC2)n1 (stereo partly shown) [I-362]
1000 to 10000 | C[C@@H](OCC12CCC(CC1)OC2)[C@H](NC(=O)[C@@H]1CN(C(=O)c2cnco2)CC12CN(C(=O)C(C)(C)C1CC1)C2)C(C)(C)O [I-448]
> 10000 | CNC(=O)[C@@H](NC(=O)[C@@H]1CN(C(=O)c2cnn(Cc3ccccc3)c2)CC12CN(C(=O)NC1CC1)C2)[C@@H](C)OCC1CCCCC1 [I-268, (S)-6-(1-benzyl-1H-pyrazole-4-carbonyl)-N8-((2S,3R)-3-(cyclohexylmethoxy)-1-(methylamino)-1-oxobutan-2-yl)-N2-cyclopropyl-2,6-diazaspiro[3.4]octane-2,8-dicarboxamide]
> 10000 | CC1(C)C[C@@H]1C(=O)N1CC2(CN(C(=O)c3cnn(Cc4ccccc4)c3)C[C@H]2C(=O)NC2CCNC(=O)C2)C1 (stereo partly shown) [I-223]
